Holding throughout (assay): biochemical
What all share (assay type): binding

The target of experiment [1] is HLA-A3.2 (A*0301) (Homo sapiens, UniProt P04439). To be noted: for A*0301 binding: Table 11, binding value, no unit; for A3.2: Table 164, MAGE peptides, binding value to HLA-A3.2, no unit given.
Experiment [2] addresses HLA-A11 (A*1101) (Homo sapiens, UniProt P04439, A114D/D185E/E176A/F33Y/L180Q/S129P/T187R). Set-up: A11: unit not given here.
For experiment [3], the target named is A*6801 (Homo sapiens, UniProt P04439, A269V/D185E/E176V/E277Q/E87N/F33Y/G231S/I121M/I166T/I218V/L180W/L300P/L318F/N151K/P208A/P217A/Q86R/R169H/T345S).
Experiment [4] has as its target A31 (A*3101) (Homo sapiens, UniProt P04439, A270S/D185E/E176V/E277Q/F33T/G231S/G80R/H175R/I121M/I218V/I322F/K168Q/L300P/L318F/M331R/P217A/Q94H/R138Q/T323A/T345S/T97I/V358M).
Experiment [5] deals with A*3301 (Homo sapiens, UniProt P04439, A270S/D185E/E176V/E277Q/E87N/F33T/G231S/H175R/I121M/I218V/I322F/K168Q/K210R/L300P/L318F/M331R/P217A/Q86R/Q94H/R138Q/T323A/T345S/T97I/V358M/Y195H).
The target of experiment [6] is HLA-A*0201 (HLA-A2.1) (Homo sapiens, UniProt P04439, D140Y/D185E/D98H/E176V/E277Q/G131W/G231S/I119V/I121R/I166T/I218V/L300P/L318F/N151K/N90K/P208A/P217A/Q86G/Q94H/R138H/R169H/T345S).

No end group written: not given here. A value given as a limit tells only on which side of the number the result lay.

In the case of 34.0323 (RVCACPGRDRR) [Peptide 34.0323], the “A*0301 binding” value in experiment [1] was determined as 0.0290. Besides, the “A*1101 binding” value in experiment [2] is reported as 0.0290.

By IC50 is commonly meant the concentration that gives 50% inhibition. For the substance SQRLNVCQDK [Peptide 88.0205], the IC50 in experiment [1] was 1.87 µM; in experiment [3] it was > 20 µM; in experiment [4], 13.4 µM; in experiment [5], > 20 µM.

Consider KTLLQQYCLY [Peptide 88.0130], for which the IC50 in experiment [1] was found to be 0.206 µM; in experiment [3], 7.03 µM; in experiment [4] it was 2.92 µM; in experiment [5], 14.4 µM.

With 34.0171 (SSBMGGMNK) [Peptide 34.0171], the “A*0301 binding” value in experiment [1] turned out to be 0.5440. The “A*1101 binding” value in experiment [2] is 1.1000.

With VFGIDVKEA, in experiment [1], the A3.2 is given as <0.0002. Moreover, the A2.1 in experiment [6] is on record as <0.0002. The same substance had an A11 in experiment [2] of 0.

In the case of NTNAGTDPR [Peptide 88.0372], the IC50 in experiment [1] was 1.12 µM; in experiment [3] it was 0.05 µM; in experiment [4], 7.02 µM; in experiment [5] it was 0.418 µM.

Take LQGLAQSRYK [Peptide 88.0201]: the IC50 in experiment [1] is 1.1 µM; in experiment [3] it was > 20 µM; in experiment [4], 4.01 µM; in experiment [5] it was > 20 µM.

Take SQWIKYRCSK [Peptide 88.0174]: the concentration for half-maximal inhibition (IC50) in experiment [1] is 0.944 µM; in experiment [3], > 20 µM; in experiment [4], 0.323 µM; in experiment [5], 3.4 µM.

As to IMCLRFLSK [Peptide 1571.12], the half-inhibitory concentration (IC50) in experiment [1] was 0.011 µM; in experiment [3] it was 12.9 µM; in experiment [4] it was 2.3 µM; in experiment [5], 2.62 µM.

As for AILGHIVSPR [Peptide 9017.0225], the half-maximal inhibitory concentration (IC50) came to 0.014 µM in experiment [1], 0.092 µM in experiment [3], 0.0046 µM in experiment [4] and 0.074 µM in experiment [5].

In the case of TTITVYAEPPR [Peptide 1556.07], the 50% inhibitory concentration (IC50) in experiment [1] was > 20 µM; in experiment [3], 0.02 µM; in experiment [4], 0.577 µM; in experiment [5], 2.55 µM.

As to RILSTCLGR [Peptide 9017.0073], the IC50 worked out at 0.058 µM in experiment [1], 1.45 µM in experiment [3], 0.0085 µM in experiment [4] and 1.45 µM in experiment [5].

Take EVYDGREHSA: the A3.2 in experiment [1] is on record as <0.0002. The substance further registered an A2.1 in experiment [6] of 0. The substance further came in with an A11 in experiment [2] of 0.

SFTDLVRNFK [Peptide 88.0143]: the 50% inhibitory concentration (IC50) stood at 1.59 µM in experiment [1], 0.022 µM in experiment [3], 0.047 µM in experiment [4] and 0.056 µM in experiment [5].

For the substance RAHSSHLR [Peptide 1556.71], the IC50 in experiment [1] turned out to be 1.91 µM; in experiment [3], 1.72 µM; in experiment [4], 0.04 µM.

On to TVSATQIVR [Peptide 1589.26], for which the IC50 in experiment [1] was 2.54 µM; in experiment [3] it was 0.014 µM; in experiment [4], 0.213 µM; in experiment [5], 0.645 µM.

As for AFADLTVVYR [Peptide 78.0058], the IC50 in experiment [1] is > 20 µM; in experiment [3], 0.039 µM; in experiment [4] it was 0.14 µM; in experiment [5], 0.249 µM.

For KMFCQLAR [Peptide 1556.53], the IC50 turned out to be 0.022 µM in experiment [1], 0.249 µM in experiment [3] and 0.035 µM in experiment [4].

SQACALYWFR [Peptide 88.0192]: the half-inhibitory concentration (IC50) in experiment [1] came to 4.66 µM; in experiment [3] it was 0.085 µM; in experiment [4], 0.042 µM.

Consider F119.02 (LLGPGRPYR) [Peptide F119.02], for which the “A*0301 binding” value in experiment [1] is given as 0.0190. In addition, the “A*1101 binding” value in experiment [2] is given as 0.0091.

For KLFLKGVPKK [Peptide 1587.40], the IC50 in experiment [1] is 0.016 µM; in experiment [3], > 20 µM; in experiment [4], 1.04 µM; in experiment [5], > 20 µM.

Turning to EVHIPLGDAR [Peptide 9017.0217], the IC50 was 9.39 µM in experiment [1], 0.0095 µM in experiment [3] and 9.92 µM in experiment [4].

Consider SLKCLRYRLK [Peptide 88.0217], for which the half-inhibitory concentration (IC50) is 0.074 µM in experiment [1], 12.6 µM in experiment [3], 2.69 µM in experiment [4] and 18.8 µM in experiment [5].

Take LTALIKPKKR [Peptide 9017.0231]: the IC50 in experiment [1] worked out at 6.46 µM; in experiment [3], 0.039 µM; in experiment [4], 1.3 µM; in experiment [5], 8.72 µM.

As to LVKHHMYVSK [Peptide 9017.0216], the 50% inhibitory concentration (IC50) in experiment [1] amounted to 0.574 µM; in experiment [3], 0.017 µM; in experiment [4] it was 0.347 µM.

Regarding GQGVSIEWRK [Peptide 9017.0219], the IC50 in experiment [1] was 15 µM; in experiment [3], 2.21 µM; in experiment [4], 8.01 µM; in experiment [5], > 20 µM.

Regarding LTYISTSQR [Peptide 1589.19], the IC50 amounted to 0.014 µM in experiment [1], 0.00076 µM in experiment [3], 0.039 µM in experiment [4] and 0.079 µM in experiment [5].

For the substance LLCGPANTGK [Peptide 88.0195], the IC50 was 0.137 µM in experiment [1], 1.9 µM in experiment [3], 3.65 µM in experiment [4] and > 20 µM in experiment [5].

Turning to DSNAQAFLK [Peptide 88.0379], the 50% inhibitory concentration (IC50) in experiment [1] is > 20 µM; in experiment [3], 0.039 µM; in experiment [4], > 20 µM; in experiment [5] it was 0.02 µM.

ILTAFNSSHK [Peptide 1589.03]: the IC50 in experiment [1] is 0.012 µM; in experiment [3] it was 6.39 µM; in experiment [5], > 20 µM.

GQWIQSRCEK [Peptide 88.0166]: the IC50 in experiment [1] was 0.32 µM; in experiment [3] it was > 20 µM; in experiment [5] it was 4.92 µM.

Regarding RFLSKISEYR [Peptide 1571.13], the IC50 came out at 1.8 µM in experiment [1], 0.017 µM in experiment [3], 0.014 µM in experiment [4] and 0.02 µM in experiment [5].

Consider LTKMFCQLAK [Peptide 1556.51], for which the IC50 in experiment [1] came out at 0.94 µM; in experiment [3], 0.173 µM; in experiment [4], 2.38 µM; in experiment [5], 12.6 µM.

Consider GVRRATTSTK [Peptide 88.0210], for which the IC50 in experiment [1] is 0.0061 µM; in experiment [3] it was 18.3 µM; in experiment [4], 3.63 µM; in experiment [5], > 20 µM.

On to TIVYIEYRK [Peptide 9017.0118], for which the IC50 in experiment [1] was 8.83 µM; in experiment [3] it was 0.018 µM; in experiment [4] it was 13.7 µM.

For SQRLNACQNK [Peptide 1589.34], the half-maximal inhibitory concentration (IC50) in experiment [1] was 2.7 µM; in experiment [3] it was > 20 µM; in experiment [4], 5.96 µM; in experiment [5] it was > 20 µM.

RLCDHIDYWK [Peptide 1589.11]: the IC50 is 0.457 µM in experiment [1], 17.1 µM in experiment [3], 1.63 µM in experiment [4] and > 20 µM in experiment [5].

With AFKDLFVVYK [Peptide 88.0024], the concentration for half-maximal inhibition (IC50) in experiment [1] is 3.26 µM; in experiment [3], 0.576 µM; in experiment [4], 0.032 µM; in experiment [5], 0.093 µM.

MLIQPPKLR [Peptide 88.0340]: the IC50 came to 16.2 µM in experiment [1], 0.025 µM in experiment [3], 0.699 µM in experiment [4] and 0.146 µM in experiment [5].

Regarding MVVLLLVRYK [Peptide 1587.04], the IC50 in experiment [1] came to 2.63 µM; in experiment [3] it was 0.72 µM; in experiment [5], 4.48 µM.

For the substance 34.0232 (RVCACPGRDK) [Peptide 34.0232], in experiment [1], the “A*0301 binding” value stood at 0.0190. Besides, the “A*1101 binding” value in experiment [2] is on record as 0.0250.

With 34.0050 (RVCACPGR) [Peptide 34.0050], the “A*0301 binding” value in experiment [1] worked out at 0.3500. For the same substance, the “A*1101 binding” value in experiment [2] amounted to 0.0490.

On to RFHNIAGHYR [Peptide 78.0097], for which the IC50 in experiment [1] was 2.46 µM; in experiment [3], 0.151 µM; in experiment [4], 0.011 µM; in experiment [5] it was 0.099 µM.

Regarding RQQFLKTVK [Peptide 1589.33], the figures for the IC50 in experiment [1], in experiment [3] and in experiment [4] were 1.32 µM, > 20 µM and 0.045 µM, respectively.

Regarding F119.01 (MSLQRQFLR) [Peptide F119.01], in experiment [1], the “A*0301 binding” value stood at 0.2000. Also, in experiment [2], the “A*1101 binding” value was found to be 0.7200.

Turning to YLALTALIK [Peptide 9017.0097], the half-maximal inhibitory concentration (IC50) in experiment [1] is 0.235 µM; in experiment [3], 5.9 µM; in experiment [4], > 20 µM; in experiment [5] it was > 20 µM.

Turning to VLILALLRYK [Peptide 88.0144], the IC50 in experiment [1] is 0.052 µM; in experiment [2], 0.266 µM.

On to AFTDLTIVYR [Peptide 78.0052], for which the IC50 is > 20 µM in experiment [1], 0.21 µM in experiment [3], 0.81 µM in experiment [4] and 0.817 µM in experiment [5].

Take KQLQHTPSPY [Peptide 88.0204]: the IC50 is 0.117 µM in experiment [1], > 20 µM in experiment [3], > 20 µM in experiment [4] and > 20 µM in experiment [5].

LTARNVLVK [Peptide 9012.0213]: the IC50 in experiment [1] was 0.023 µM; in experiment [3], 0.052 µM; in experiment [4] it was > 20 µM; in experiment [5], > 20 µM.

The values are drawn from patent US9340577B2, “HLA binding motifs and peptides and their uses” (priority 1992, dated 2016).
